From ChEMBL document CHEMBL4837186, “Structural Elucidation of Garcipaucinones A and B From Garcinia paucinervis Using Quantum Chemical Calculations” (J Nat Prod, 2021) come the findings set out here.

Broadly, the pIC50 is the negative decadic logarithm of the IC50, by convention in mol/L.

SMILES strings stand for the structures. pIC50: −log10 of the molar value.

What all share (format): functional, cell-based
One experiment relates to HepG2. Kind of experiment: Cytotoxicity against human HepG2 cells assessed as reduction in cell viability after 24 hrs by CCK8 assay. The following applies: HepG2, 24 h. Background: Formazan colour is commonly taken as a measure of viable cells.
In a further experiment the test system is T98G. Kind of experiment: Cytotoxicity against human T98 cells assessed as reduction in cell viability after 24 hrs by CCK8 assay.
For the next experiment, the system named is MCF7. Put plainly: Cytotoxicity against human MCF7 cells assessed as reduction in cell viability after 24 hrs by CCK8 assay. Particulars: MCF7, 24 h.
The next experiment deals with RAW264.7. Put plainly: Anti-inflammatory activity in mouse RAW264.7 cells assessed as inhibition of LPS-induced NO production after 24 hrs by Griess reagent-based assay. Particulars: RAW264.7, 24 h.

For the compound `CC(C)=CCC/C(C)=C/CC/C(C)=C/CC[C@]1(C)CCC2=C(O1)[C@]1(C)C[C@@](O)(Oc3c1occc3=O)C2=O`, the negative logarithm of the IC50 (pIC50) with HepG2, in the experiment with T98G, in the experiment on MCF7 and in the experiment with RAW264.7 was under 4.70 throughout.
Consider `CC(C)=CCC/C(C)=C/CC/C(C)=C/CC[C@]1(C)CCC2=C(O1)[C@@]1(C)C[C@](O)(Oc3c1occc3=O)C2=O`, for which the pIC50 with HepG2, in the experiment on T98G, in the experiment on MCF7 and with RAW264.7 was under 4.70 each time.
In the case of `C[C@@H]1C[C@H]2[C@@H]3CCC4=CC(=O)C=C[C@]4(C)[C@@]3(F)[C@@H](O)C[C@]2(C)[C@@]1(O)C(=O)CO` [DEXAMETHASONE], the pIC50 in the experiment on RAW264.7 is 5.08.
